Experimental data reported in US20050245606A1, “High-efficiency fullerene-based radical scavengers” (Nano-C, Inc., priority 2003, published 2005).

Experiment: Scavenging of cigarette smoke radicals in decalin, read out by DHR 6G fluorescence
Assay type: biochemical
Protocol: Tests were conducted to study the effectiveness of methanofullerene derivatives against radicals present in cigarette smoke (predominantly peroxyl radical). The cigarette smoke was bubbled through a glass frit into a solvent (decalin) in which radical scavengers were dissolved. The smoke then exited this solvent and was passed through a second flask, in which a fluorescent probe that fluoresces upon oxidation by radicals was used (Dihydrorhodamine 6G (DHR 6G), purchased from Molecular Probes). The variation of fluorescent signal corresponds directly to the radical content of the cigarette smoke, and thus a measure of the reduction of radicals by the radical scavenger is measured. Signals were measured every 10 seconds.
Tests were conducted to study the sensitivity of the test apparatus in Example 1 to varying concentrations of Vitamin E as a radical scavenger to scavenge radicals present in cigarette smoke (predominantly peroxyl radical). The cigarette smoke was bubbled through a cylindrical, coarse glass frit into a solvent (decalin) in which radical scavengers were dissolved. The smoke then exited this solvent and was passed through a second flask, in which a fluorescent probe that fluoresces upon oxidation by radicals was used (Dihydrorhodamine 6G (DHR 6G), purchased from Molecular Probes). The variation of fluorescent signal corresponds directly to the radical content of the cigarette smoke, and thus a measure of the reduction of radicals by the radical scavenger is measured. Signals were measured every 10 seconds.

| Molecule | difference in fluorescence signal / radical scavenging efficiency versus Vitamin E (300 μM PCBM versus 300 μM Vitamin E) | reduction of radicals by the radical scavenger (fluorescent signal of DHR 6G) (scavenger dissolved in decalin, comparison with Vitamin E under identical conditions, FIG. 6A) | change of fluorescent signal on doubling the scavenger concentration (150 μM versus 300 μM in decalin, FIG. 6B) |
| --- | --- | --- | --- |
| COC(=O)CCCC1(c2ccccc2)C23C=Cc4cc5c6c7c4C21c1c2c4c(cc8ccc9cc(c6c6c9c8c4c6c17)C5)CC2=C3 (stereo not drawn) [PCBM, [6,6]-phenyl C61-butyric acid methyl ester] | very large difference in radical scavenging efficiency | scavenges significantly more of the radicals present in the cigarette smoke than Vitamin E |  |
| Vitamin E [reference compound] |  |  | very small deflection |
